In PubChem BioAssay (NCI):
“And” between values parts separate entries of the source, which are not always exact repeats. Equal entries are not always repeated.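 Briefly, cells in 96-well plates were exposed to five compound concentrations for 48 h, and endpoints were estimated by linear interpolation. Here, GI50 denotes the concentration required for 50% inhibition of growth. Definition used: TGI = concentration required for complete inhibition of growth.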

What was measured:
Test in all cases: NCI tumour cell line growth inhibition, 48 h
[1] = test system: DLD-1 colon
[2] = test system: HOP-18 NSCLC
[3] = test system: KM20L2 colon
[4] = test system: LXFL 529 NSCLC
[5] = test system: SNB-78 CNS
[6] = test system: RXF-631 renal
[7] = test system: P388 leukemia
[8] = test system: P388/ADR leukemia
[9] = test system: SN12K1 renal

Row | SMILES | TGI [1] | TGI [2] | TGI [3] | TGI [4] | TGI [5] | TGI [6] | GI50 [2] | TGI [7] | TGI [8] | TGI [9]
1 | CC(C)N(C(C)C)P(OCCC#N)OC1CC(n2cnc3c(=O)[nH]cnc32)OC1COC(=O)NCCCCCCNC(=O)OC(C)(C)c1ccc(-c2ccccc2)cc1 (centres undefined) | > 100 µM | > 100 µM | > 100 µM | 32.5 µM | > 100 µM |  |  |  |  | 
2 | c1ccc(CCn2cncn2)cc1 | > 100 µM |  | > 100 µM | > 100 µM | > 100 µM | > 100 µM |  |  |  | 
3 | O=C1NC2(C=Cc3c(ccc4ccccc34)O2)Oc2ccccc21 (centres undefined) |  |  | > 100 µM | 56.4 µM | 94.1 µM |  |  |  |  | 
4 | N#C/C(=C\c1ccccc1Br)C(=O)c1ccccc1 |  |  | > 100 µM | > 58.3 µM | > 100 µM | > 100 µM |  |  |  | 
5 | CCCCCCCCCCSCC(CO)NC(=O)/C=C/c1c(C)[nH]c(=O)[nH]c1=O (centres undefined) | > 50 µM | > 50 µM | > 50 µM |  | > 31.6 µM |  | 2.91 µM and > 26.8 µM | 7.15 µM and 6.31 µM | > 50 µM | > 35.6 µM and 19.9 µM
6 | CC(=O)CC(=O)/C=C/c1cccs1 | > 100 µM |  | > 100 µM | > 100 µM |  |  |  |  |  | 
7 | CN(CCO)/N=N/c1[nH]ncc1C(N)=O | > 100 µM | > 100 µM | > 100 µM |  | > 100 µM |  |  | > 100 µM | > 100 µM | > 100 µM
8 | O=C1C[C@H](c2ccc(O)c(O)c2)Oc2cc(O)cc(O)c21 | > 100 µM | > 100 µM | > 100 µM | > 100 µM | > 100 µM | > 100 µM |  |  |  | 
9 | COc1ccc(C2C(Cl)C(=O)N2NC(=O)Cc2ccccc2)cc1OC (centres undefined) | > 100 µM | > 100 µM | > 100 µM |  | > 100 µM |  |  |  |  | 
10 | c1ccc(C2[C@@H]3CCCc4ccccc4C3=NN2c2ccccc2)cc1 (some centres undefined) | > 100 µM |  | > 100 µM | > 100 µM | > 100 µM |  |  |  |  | 
11 | CCN(CC)CCNc1ccc2ncn3c4cc(=O)ccc4c(O)c1c23 | 17 µM |  | 16.4 µM | 20.5 µM | 25.4 µM | 12.5 µM |  |  |  | 
